Measured values reported in US9440969B2, “Compounds and methods for kinase modulation, and indications therefor” (PLEXXIKON INC., priority 2009, dated 2016).

Columns and labels:
B-Raf V600E = B-Raf V600E (Homo sapiens, UniProt P15056, V600E); experiment: B-Raf V600E kinase activity assay (AlphaScreen, biotin-MEK1 substrate); conditions: 100 μM ATP, 100 nM biotin-MEK1, 45 minutes at room temperature, read-out: Biochemical activity (IC50 μM) V600E
Protocol: (§1) Assays for biochemical and cell based activity are known in the art, for example, as described in PCT publication WO 2007/002433, the disclosure of which is hereby incorporated by reference as it relates to such assays. For example, the biochemical activity IC50 values are determined with respect to inhibition of B-Raf kinase activity, c-Raf-1 kinase activity, or B-Raf V600E kinase activity, where inhibition of phosphorylation of a peptide substrate is measured as a function of compound concentration. Compounds to be tested are diluted in dimethyl sulfoxide to a concentration of 0.1 mM. These are serially diluted 15 μL into 30 μL of dimethyl sulfoxide seven times in 96 well plates for a total of 8 dilution points, and for each dilution point 1 μL is added to a well of an assay plate. Plates are prepared such that each well in a 384 well plate contains 1 μL of compound in 10 μL, volume with 0.1 ng Raf enzyme (i.e. any of B-Raf, c-Raf-1 or B-Raf V600E, Upstate Biotechnology or prepared by methods known to one of skill in the art), 50 mM HEPES, pH 7.0, 50 mM NaCl, 2 mM MgCl2, 1 mM MnCl2, 0.01% Tween-20, 1 mM DTT, and 100 nM biotin-MEK1 as substrate. The reaction is started with addition of 10 μL of 200 μM ATP (i.e. final 100 μM ATP). After incubation of the kinase reaction for 45 minutes at room temperature, 5 μL/well of Stop Solution is added (25 mM Hepes pH 7.5, 100 mM EDTA, 0.01% BSA with donor beads (Streptavidin coated beads, Perkin Elmer), acceptor beads (Protein A coated, Perkin Elmer), and anti phosphor MEK1/2 antibody (CellSignal), each at final concentration 10 μg/mL). The plates are incubated for 3 hours at room temperature and read on Envision reader (Perkin Elmer). Phosphorylation of Mek1 results in binding of the anti-phosphor-MEK1/2 antibody and association of the donor and acceptor beads such that signal correlates with kinase activity. The signal vs. compound concentration is used to determine the IC50.

c-Raf-1 = c-Raf-1 (Homo sapiens, UniProt P04049); experiment: c-Raf-1 kinase activity assay (AlphaScreen, biotin-MEK1 substrate); conditions: 100 μM ATP, 100 nM biotin-MEK1, 45 minutes at room temperature; read-out: Biochemical activity (IC50 μM) c-Raf-1
Protocol: as §1

B-Raf = B-Raf (Homo sapiens, UniProt P15056); experiment: B-Raf kinase activity assay (AlphaScreen, biotin-MEK1 substrate); conditions: 100 μM ATP, 100 nM biotin-MEK1, 45 minutes at room temperature; read-out: Biochemical activity (IC50 μM) B-Raf
Protocol: as §1

B-Raf, sequence (P15056 whole entry): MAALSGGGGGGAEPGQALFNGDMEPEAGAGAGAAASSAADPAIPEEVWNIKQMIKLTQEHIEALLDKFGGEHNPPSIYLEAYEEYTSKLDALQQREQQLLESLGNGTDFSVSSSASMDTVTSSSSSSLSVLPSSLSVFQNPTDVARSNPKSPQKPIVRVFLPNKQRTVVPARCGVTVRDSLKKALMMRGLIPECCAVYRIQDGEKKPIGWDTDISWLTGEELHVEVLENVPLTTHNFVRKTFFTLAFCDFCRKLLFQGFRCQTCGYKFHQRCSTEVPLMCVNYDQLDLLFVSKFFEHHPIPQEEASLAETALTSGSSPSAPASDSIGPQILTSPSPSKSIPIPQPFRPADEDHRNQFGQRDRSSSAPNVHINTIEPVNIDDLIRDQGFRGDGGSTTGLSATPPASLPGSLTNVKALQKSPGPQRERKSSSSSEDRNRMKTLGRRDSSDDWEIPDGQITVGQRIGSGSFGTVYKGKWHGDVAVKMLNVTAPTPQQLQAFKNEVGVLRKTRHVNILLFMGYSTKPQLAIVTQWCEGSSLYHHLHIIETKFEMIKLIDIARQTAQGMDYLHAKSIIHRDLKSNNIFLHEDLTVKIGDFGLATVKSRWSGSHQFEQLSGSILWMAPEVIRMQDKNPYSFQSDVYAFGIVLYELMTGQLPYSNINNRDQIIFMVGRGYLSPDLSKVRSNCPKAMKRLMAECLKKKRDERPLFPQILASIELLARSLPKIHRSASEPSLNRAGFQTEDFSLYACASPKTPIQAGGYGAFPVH
B-Raf V600E, sequence (P15056 whole entry V600E): as the sequence (P15056 whole entry) above, with V600E counted along it
c-Raf-1, sequence (P04049 whole entry Y340D/Y341D, form open): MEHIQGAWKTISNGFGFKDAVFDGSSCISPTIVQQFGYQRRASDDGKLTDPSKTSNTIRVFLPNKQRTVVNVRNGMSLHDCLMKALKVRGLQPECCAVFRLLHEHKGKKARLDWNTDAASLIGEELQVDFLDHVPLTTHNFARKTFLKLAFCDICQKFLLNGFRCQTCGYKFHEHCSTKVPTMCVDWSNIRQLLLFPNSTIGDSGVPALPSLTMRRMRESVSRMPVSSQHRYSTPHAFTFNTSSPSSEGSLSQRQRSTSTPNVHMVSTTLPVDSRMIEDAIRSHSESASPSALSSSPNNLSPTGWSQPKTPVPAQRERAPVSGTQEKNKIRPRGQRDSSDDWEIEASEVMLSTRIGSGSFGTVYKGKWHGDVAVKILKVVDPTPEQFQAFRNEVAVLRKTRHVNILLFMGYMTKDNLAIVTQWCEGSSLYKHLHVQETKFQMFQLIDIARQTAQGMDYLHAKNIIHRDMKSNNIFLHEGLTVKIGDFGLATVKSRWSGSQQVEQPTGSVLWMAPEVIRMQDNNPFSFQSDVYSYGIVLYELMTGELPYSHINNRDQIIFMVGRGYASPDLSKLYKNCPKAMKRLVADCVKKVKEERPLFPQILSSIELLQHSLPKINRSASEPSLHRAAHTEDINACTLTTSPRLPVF

SMILES | IC50 (B-Raf V600E) [µM] | IC50 (c-Raf-1) [µM] | IC50 (B-Raf) [µM]
CCCS(=O)(=O)Nc1ccc(F)c(C(=O)c2c[nH]c3ncc(-c4ccc5ncncc5c4)cc23)c1F [P-0026, Propane-1-sulfonic acid [2,4-difluoro-3-(5-quinazolin-6-yl-1H-pyrrolo[2,3-b]pyridine-3-carbonyl)-phenyl]-amide] | < 0.1 | < 0.1 | < 0.1
Cn1cc(-c2cnc3[nH]cc(C(=O)c4c(F)ccc(NS(=O)(=O)c5cc(F)ccc5F)c4F)c3c2)cn1 [P-1009, N-{2,4-Difluoro-3-[5-(1-methyl-1H-pyrazol-4-yl)-1H-pyrrolo[2,3-b]pyridine-3-carbonyl]-phenyl}-2,5-difluoro-benzenesulfonamide] | < 0.1 | < 0.1 | < 0.1
CCCS(=O)(=O)Nc1ccc(F)c(C(=O)c2c[nH]c3ncc(-c4cnc(-n5cccn5)s4)cc23)c1F [P-1109, Propane-1-sulfonic acid {2,4-difluoro-3-[5-(2-pyrazol-1-yl-thiazol-5-yl)-1H-pyrrolo[2,3-b]pyridine-3-carbonyl]-phenyl}-amide] | < 0.1 | < 0.1 | < 0.1
O=C(c1c(F)ccc(NS(=O)(=O)c2cc(F)ccc2F)c1F)c1c[nH]c2ncc(-c3cccnc3)cc12 [P-1402, N-[2,4-Difluoro-3-(5-pyridin-3-yl-1H-pyrrolo[2,3-b]pyridine-3-carbonyl)-phenyl]-2,5-difluoro-benzenesulfonamide] | < 0.1 | < 0.1 | < 0.1
O=C(c1c(F)ccc(NS(=O)(=O)c2cc(F)ccc2F)c1F)c1c[nH]c2ncc(-c3cncnc3)cc12 [P-1500, N-[2,4-Difluoro-3-(5-pyrimidin-5-yl-1H-pyrrolo[2,3-b]pyridine-3-carbonyl)-phenyl]-2,5-difluoro-benzenesulfonamide] | < 0.1 | < 0.1 | < 0.1
CCCS(=O)(=O)Nc1ccc(F)c(C(=O)c2c[nH]c3ncc(NC(=O)c4cccnc4)cc23)c1F [P-1800, N-{3-[2,6-Difluoro-3-(propane-1-sulfonylamino)-benzoyl]-1H-pyrrolo[2,3-b]pyridin-5-yl}-nicotinamide] | < 0.1 | < 0.1 | < 1

More lines, now with the values ahead:

IC50 (B-Raf V600E) [µM] | IC50 (c-Raf-1) [µM] | IC50 (B-Raf) [µM] | SMILES
< 0.1 | < 0.1 | < 0.1 | CCCS(=O)(=O)Nc1ccc(F)c(C(=O)c2c[nH]c3ncc(-c4c(C)nn(-c5nnn[nH]5)c4C)cc23)c1F [P-1006, Propane-1-sulfonic acid (3-{5-[3,5-dimethyl-1-(1H-tetrazol-5-yl)-1H-pyrazol-4-yl]-1H-pyrrolo[2,3-b]pyridine-3-carbonyl}-2,4-difluoro-phenyl)-amide]
< 0.1 | < 0.1 | < 0.1 | CCCS(=O)(=O)Nc1ccc(F)c(C(=O)c2c[nH]c3ncc(-c4c(C)nn(S(=O)(=O)c5cn(C)nc5C)c4C)cc23)c1F [P-1007, Propane-1-sulfonic acid (3-{5-[1-(1,3-dimethyl-1H-pyrazole-4-sulfonyl)-3,5-dimethyl-1H-pyrazol-4-yl]-1H-pyrrolo[2,3-b]pyridine-3-carbonyl}-2,4-difluoro-phenyl)-amide]
< 0.1 | < 0.1 | < 0.1 | O=C(c1c(F)ccc(NS(=O)(=O)c2cc(F)ccc2F)c1F)c1c[nH]c2ncc(-c3cnco3)cc12 [P-1300, N-[2,4-Difluoro-3-(5-oxazol-5-yl-1H-pyrrolo[2,3-b]pyridine-3-carbonyl)-phenyl]-2,5-difluoro-benzenesulfonamide]
< 0.1 | < 0.1 | < 0.1 | O=C(c1c(F)ccc(NS(=O)(=O)c2cc(F)ccc2F)c1F)c1c[nH]c2ncc(-c3ccncc3)cc12 [P-1403, N-[2,4-Difluoro-3-(5-pyridin-4-yl-1H-pyrrolo[2,3-b]pyridine-3-carbonyl)-phenyl]-2,5-difluoro-benzenesulfonamide]
< 0.1 | < 0.1 | < 0.1 | O=C(c1c(F)ccc(NS(=O)(=O)c2cc(F)ccc2F)c1F)c1c[nH]c2ncc(-c3ccncc3F)cc12 [P-1405, N-{2,4-Difluoro-3-[5-(3-fluoro-pyridin-4-yl)-1H-pyrrolo[2,3-b]pyridine-3-carbonyl]-phenyl}-2,5-difluoro-benzenesulfonamide]
< 0.1 | < 0.1 | < 0.1 | CS(=O)(=O)c1cncc(-c2cnc3[nH]cc(C(=O)c4c(F)ccc(NS(=O)(=O)c5cc(F)ccc5F)c4F)c3c2)c1 [P-1407, N-{2,4-Difluoro-3-[5-(5-methanesulfonyl-pyridin-3-yl)-1H-pyrrolo[2,3-b]pyridine-3-carbonyl]-phenyl}-2,5-difluoro-benzenesulfonamide]
< 0.1 | < 0.1 | < 0.1 | CNS(=O)(=O)c1ccc(-c2cnc3[nH]cc(C(=O)c4c(F)ccc(NS(=O)(=O)c5cc(F)ccc5F)c4F)c3c2)cc1 [P-1706, N-{2,4-Difluoro-3-[5-(4-methylsulfamoyl-phenyl)-1H-pyrrolo[2,3-b]pyridine-3-carbonyl]-phenyl}-2,5-difluoro-benzenesulfonamide]
< 0.1 | < 0.1 | < 0.1 | NS(=O)(=O)c1ccc(-c2cnc3[nH]cc(C(=O)c4c(F)ccc(NS(=O)(=O)c5cc(F)ccc5F)c4F)c3c2)cc1 [P-1707, N-{2,4-Difluoro-3-[5-(4-sulfamoyl-phenyl)-1H-pyrrolo[2,3-b]pyridine-3-carbonyl]-phenyl}-2,5-difluoro-benzenesulfonamide]
< 0.1 | ~0.1 | < 1 | CCCS(=O)(=O)Nc1ccc(F)c(C(=O)c2c[nH]c3ncc(NC(=O)C4C=C(C)ON4)cc23)c1F (stereo not drawn) [P-1802, 5-Methyl-2,3-dihydro-isoxazole-3-carboxylic acid {3-[2,6-difluoro-3-(propane-1-sulfonylamino)-benzoyl]-1H-pyrrolo[2,3-b]pyridin-5-yl}-amide]
